As a reminder, the Ki is a dissociation constant, usually derived from enzyme kinetics or from competition with a known ligand.

Activity calls are given as the source filed them. The rule behind the calls is not given here.

For assay [1], the system named is Burkholderia pseudomallei. Nature of the assay: Antimicrobial activity against Burkholderia pseudomallei K96243 infected in mouse RAW264.7 cells assessed as reduction in bacteria-induced cytotoxicity at 50 uM after 24 hrs by lactate dehydrogenase release assay relative to control. Set-up: scale not given: the % may be the effect or the level left. The class given is functional.

For assay [2], the system named is Neisseria meningitidis. The assay can be described thus: Inhibition of Neisseria meningitidis Mip NEIS0004 assessed as remaining activity using Suc-ALPF-pNA substrate measured at 400 nM by protease coupled assay relative to control.
Assay [3] in a line: Binding affinity to Burkholderia pseudomallei Mip measured after 1 hr by fluorescence polarization assay. Background: Polarisation of emitted light reports the rotation of a fluorescent probe.
Assay [4] relates to Neisseria meningitidis. Nature of the assay: Antimicrobial activity against Neisseria meningitidis infected in mouse RAW264.7 cells assessed as reduction in bacteria-induced cytotoxicity at 50 uM after 24 hrs by lactate dehydrogenase release assay relative to control. The assay is classed as functional. Details: scale not given: the % may be the effect or the level left.
Assay [5] has as its system Burkholderia pseudomallei. Nature of the assay: Inhibition of Burkholderia pseudomallei Mip PPIase activity assessed as remaining activity using Suc-ALPF-pNA substrate measured at 400 nM by protease coupled assay relative to control.
Another assay concerns Neisseria gonorrhoeae. Nature of the assay: Antimicrobial activity against Neisseria gonorrhoeae infected in mouse RAW264.7 cells assessed as reduction in bacteria-induced cytotoxicity at 50 uM after 24 hrs by lactate dehydrogenase release assay relative to control. The class given is functional. Details: scale not given: the % may be the effect or the level left.
In assay [6] the test system is Neisseria meningitidis. Nature of the assay: Inhibition of Neisseria meningitidis Mip PPIase activity assessed as remaining activity using Suc-ALPF-pNA substrate measured at 400 nM by protease coupled assay relative to control.

For `CC(C)C[C@H](OC(=O)[C@@H]1CCCCN1S(=O)(=O)Cc1ccccc1)C(=O)NCc1cccnc1`, the Activity in assay [1] is 87.8%; in the assay on Neisseria meningitidis [2], 3.8%; with Neisseria meningitidis [4] it was 13%; in assay [5], 4.8%; in the assay with Neisseria gonorrhoeae, 19.1%; in the assay on Neisseria meningitidis [6], 35.6%. In assay [3] (read-out: Ki), the Ki came to 60.5 nM.

Take `CC(C)C[C@H](NC(=O)[C@@H]1CCCCN1S(=O)(=O)Cc1ccc(F)cc1)C(=O)NCc1ccc[n+]([O-])c1`: the Activity in assay [1] was determined as 61.5%; with Neisseria meningitidis [2], 23.8%; in the assay on Neisseria meningitidis [4], 71.3%; in assay [5], 21%; in the assay with Neisseria gonorrhoeae it was 56.4%; with Neisseria meningitidis [6] it was 44.4%. Also, in assay [3] (read-out: Ki), the Ki amounted to 148 nM.

Regarding `O=C(NCc1cccnc1)[C@H](Cc1ccccc1)OC(=O)[C@@H]1CCCCN1S(=O)(=O)c1ccccc1`, the Activity was 72.5% in assay [1]; 6.7% in the assay with Neisseria meningitidis [2]; 41.5% in the assay with Neisseria meningitidis [4]; 7% in assay [5]; 64.6% in the assay on Neisseria gonorrhoeae; 10% in the assay with Neisseria meningitidis [6]. Also, the Ki in assay [3] (read-out: Ki) was found to be 122 nM.

As to `O=C(NCc1cccnc1)[C@@H](Cc1ccccc1)NC(=O)[C@@H]1CCCCN1S(=O)(=O)Cc1ccccc1`, the Activity in assay [1] is 30.4%; in the assay with Neisseria meningitidis [2] it was 45.4%; in the assay on Neisseria meningitidis [4], 60.8%; in assay [5], 21.5%; with Neisseria gonorrhoeae it was 70.6%; in the assay on Neisseria meningitidis [6] it was 87.9%. Also, the Ki in assay [3] (read-out: Ki) was 626 nM.

Take `CC(C)[C@H](OC(=O)C1CCCCN1S(=O)(=O)Cc1ccccc1)C(=O)NCc1cccnc1` (mixture of isomers): the Activity was 96.8% in assay [1]; 10.9% in the assay with Neisseria meningitidis [2]; 52.5% in the assay with Neisseria meningitidis [4]; 13.9% in assay [5]; 65.1% with Neisseria gonorrhoeae; 25.2% in the assay with Neisseria meningitidis [6]. In addition, the Ki in assay [3] (read-out: Ki) was determined as 1080 nM.

For the compound `COCCOc1cc(OCCOC)cc(C(=O)NCCOC(=O)[C@@H]2CCCCN2S(=O)(=O)Cc2ccccc2)c1`, the Activity in assay [1] amounted to 71%; in the assay on Neisseria meningitidis [2], 88.9%; with Neisseria meningitidis [4], 19.6%; in assay [5], 52.3%; with Neisseria gonorrhoeae, 21.5%; in the assay with Neisseria meningitidis [6], 85%. Also, in assay [3] (read-out: Ki), the Ki was 1060 nM.

`CC(C)C[C@@H](OC(=O)[C@@H]1CCCCN1S(=O)(=O)Cc1ccccc1)C(=O)NCc1cccnc1`: the outcome (in the assay on Neisseria meningitidis [2]; in assay [5]; in the assay on Neisseria meningitidis [6]) was inactive. In assay [3] (read-out: Ki), the Ki came to 2520 nM.

Regarding `O=C(NCc1cccnc1)[C@H](Cc1ccccc1)NC(=O)[C@@H]1CCCCN1S(=O)(=O)Cc1ccccc1`, the Activity in assay [1] amounted to 63.4%; in the assay on Neisseria meningitidis [2], 8.5%; in the assay with Neisseria meningitidis [4], 25%; in assay [5], 23.7%; in the assay on Neisseria gonorrhoeae it was 40.9%; in the assay with Neisseria meningitidis [6] it was 27.3%. In addition, the Ki in assay [3] (read-out: Ki) came out at 34.7 nM.

As for `CC(C)C[C@H](NC(=O)[C@@H]1CCCCN1S(=O)(=O)Cc1ccc(F)cc1)C(=O)NCc1cccnc1`, the Activity in assay [1] amounted to 46.8%; in the assay on Neisseria meningitidis [2] it was 4.2%; in the assay with Neisseria meningitidis [4], 56.2%; in assay [5], 5.8%; in the assay on Neisseria gonorrhoeae, 61.7%; in the assay on Neisseria meningitidis [6] it was 23.6%. In assay [3] (read-out: Ki), the Ki is 45.6 nM.

In the case of `O=C(O[C@@H](Cc1ccccc1)C(=O)NCc1cccnc1)C1CCCCN1S(=O)(=O)Cc1ccccc1` (mixture of isomers), the Activity in assay [1] is 68.5%; in the assay with Neisseria meningitidis [2], 6.9%; in the assay with Neisseria meningitidis [4] it was 38.4%; in assay [5], 15.9%; in the assay on Neisseria gonorrhoeae, 65.1%; with Neisseria meningitidis [6], 14%. The Ki in assay [3] (read-out: Ki) turned out to be 48.8 nM.

`O=C(NCc1ccc[n+]([O-])c1)[C@H](Cc1ccc(F)cc1)NC(=O)[C@@H]1CCCCN1S(=O)(=O)Cc1ccc(F)cc1`: the Activity was determined as 51.7% in assay [1]; 24% with Neisseria meningitidis [2]; 52.8% with Neisseria meningitidis [4]; 40.9% in assay [5]; 44.2% with Neisseria gonorrhoeae; 49.4% in the assay on Neisseria meningitidis [6]. Moreover, the Ki in assay [3] (read-out: Ki) is 1310 nM.

As for `O=C(NCc1cccnc1)[C@@H](Cc1ccccc1)OC(=O)[C@@H]1CCCCN1S(=O)(=O)c1ccccc1`, the Activity is 65.9% in assay [1]; 106% in the assay with Neisseria meningitidis [2]; 26% in the assay on Neisseria meningitidis [4]; 151% in assay [5]; 73.2% in the assay on Neisseria gonorrhoeae; 51.1% in the assay with Neisseria meningitidis [6]. The Ki in assay [3] (read-out: Ki) turned out to be 41100 nM.

Turning to `O=C(NCCOC(=O)[C@@H]1CCCCN1S(=O)(=O)Cc1ccccc1)c1cccnc1`, the Activity in assay [1] amounted to 68.9%; in the assay on Neisseria meningitidis [2], 61.9%; in the assay on Neisseria meningitidis [4], 41.1%; in assay [5], 50.3%; with Neisseria gonorrhoeae it was 27.1%; in the assay on Neisseria meningitidis [6], 52.2%. In addition, the Ki in assay [3] (read-out: Ki) was found to be 3960 nM.

As for `O=C(NCc1cccnc1)[C@@H](CCc1ccccc1)NC(=O)[C@@H]1CCCCN1S(=O)(=O)Cc1ccccc1`, the Activity in assay [1] stood at 88.7%; in the assay on Neisseria meningitidis [2], 39.9%; in the assay on Neisseria meningitidis [4], 69.9%; in assay [5], 23.4%; with Neisseria gonorrhoeae, 41.9%; with Neisseria meningitidis [6] it was 83.7%. For the same compound, in assay [3] (read-out: Ki), the Ki amounted to 320 nM.

With `O=C(NCc1cccnc1)C(CCc1cccnc1)OC(=O)[C@@H]1CCCCN1S(=O)(=O)c1ccccc1` (mixture of isomers), the Activity in assay [1] came to 35.6%; in the assay on Neisseria meningitidis [2], 32.8%; with Neisseria meningitidis [4], 84.4%; in assay [5] it was 32.6%; in the assay with Neisseria gonorrhoeae, 52%; with Neisseria meningitidis [6], 82%. Moreover, in assay [3] (read-out: Ki), the Ki is 4160 nM.

As to `O=C(NCc1cccnc1)[C@@H](CCc1ccccc1)COC(=O)[C@@H]1CCCCN1S(=O)(=O)Cc1ccccc1`, the Activity turned out to be 70.6% in assay [1]; 11.1% with Neisseria meningitidis [2]; 16% with Neisseria meningitidis [4]; 14.8% in assay [5]; 19.8% in the assay on Neisseria gonorrhoeae; 54% with Neisseria meningitidis [6]. Also, the Ki in assay [3] (read-out: Ki) came to 15.3 nM.

Consider `O=C(NCc1cccnc1)[C@H](Cc1ccccc1)OC(=O)[C@H]1CCCCN1S(=O)(=O)c1ccccc1`, for which the Activity came out at 82.7% in assay [1]; 122% in the assay on Neisseria meningitidis [2]; 35.2% with Neisseria meningitidis [4]; 147% in assay [5]; 68.4% with Neisseria gonorrhoeae; 27.2% in the assay on Neisseria meningitidis [6]. Moreover, the Ki in assay [3] (read-out: Ki) came out at 42400 nM.

On to `O=C(O[C@H](Cc1ccccc1)C(=O)NCc1cccnc1)[C@H]1CCCCN1S(=O)(=O)c1ccccc1`, for which the Activity came out at 74.3% in assay [1]; 108% with Neisseria meningitidis [2]; 21% in the assay on Neisseria meningitidis [4]; 155% in assay [5]; 58.6% in the assay with Neisseria gonorrhoeae; 51.3% with Neisseria meningitidis [6]. Besides, the inhibitory constant (Ki) result in assay [3] was “Not Active”.

For `O=C(N[C@@H](Cc1ccccc1)C(=O)NCc1ccc[n+]([O-])c1)C1CCCCN1S(=O)(=O)Cc1ccccc1` (mixture of isomers), the Activity in assay [1] was determined as 46.2%; in the assay on Neisseria meningitidis [2] it was 45.5%; with Neisseria meningitidis [4], 76%; in assay [5], 51.9%; with Neisseria gonorrhoeae, 45.4%; in the assay with Neisseria meningitidis [6] it was 66.7%. In assay [3] (read-out: Ki), the Ki stood at 4450 nM.

Consider `CC(C)C[C@H](OC(=O)C1CCCCN1S(=O)(=O)Cc1ccccc1)C(=O)NCc1cccnc1` (mixture of isomers), for which the Activity was 93.2% in assay [1]; 3.4% in the assay with Neisseria meningitidis [2]; 36.9% with Neisseria meningitidis [4]; 17.4% in assay [5]; 22.1% with Neisseria meningitidis [6]. For the same compound, the Ki in assay [3] (read-out: Ki) was 15.8 nM.

In the case of `O=C(NCc1cccnc1)[C@H](Cc1ccc(F)cc1)NC(=O)[C@@H]1CCCCN1S(=O)(=O)Cc1ccc(F)cc1`, the Activity in assay [1] is 68%; in the assay on Neisseria meningitidis [2], 37.2%; with Neisseria meningitidis [4], 47.9%; in assay [5], 12.5%; in the assay on Neisseria gonorrhoeae it was 50.8%; in the assay with Neisseria meningitidis [6] it was 11.5%. The Ki in assay [3] (read-out: Ki) is 18.8 nM.

`O=C(NCc1cccnc1)[C@@H](NC(=O)[C@@H]1CCCCN1S(=O)(=O)Cc1ccc(F)cc1)c1ccc(F)cc1`: the Activity came out at 46.7% in assay [1]; 30.6% in the assay with Neisseria meningitidis [2]; 51.4% with Neisseria meningitidis [4]; 13.5% in assay [5]; 31.4% in the assay on Neisseria gonorrhoeae; 43.3% in the assay on Neisseria meningitidis [6]. Further, the Ki in assay [3] (read-out: Ki) amounted to 17 nM.

Take `O=C(NCc1cccnc1)C(CCc1ccccc1)COC(=O)[C@H]1CCCCN1S(=O)(=O)Cc1ccccc1` (mixture of isomers): the Activity came to 95.7% in assay [1]; 119% with Neisseria meningitidis [2]; 21.2% in the assay with Neisseria meningitidis [4]; 140% in assay [5]; 93.7% with Neisseria meningitidis [6]. For the same compound, in assay [3], the Ki entry is reported as “Not Active”.

Turning to `C=CCOC(=O)[C@H](Cc1ccc(F)cc1)NC(=O)[C@@H]1CCCCN1S(=O)(=O)Cc1ccc(F)cc1`, the outcome (in the assay with Neisseria meningitidis [2]; in assay [5]; in the assay with Neisseria meningitidis [6]) was inactive. In assay [3], the Ki entry is given as “Not Active”.

Values taken from ChEMBL document CHEMBL5331130, “Analysis of Structure-Activity Relationships of Novel Inhibitors of the Macrophage Infectivity Potentiator (Mip) Proteins of Neisseria meningitidis, Neisseria gonorrhoeae, and Burkholderia pseudomallei” (J Med Chem, 2023).
